From PubChem BioAssay AID2060905 (Molecular Pharmacology Branch, DTP, NCI, 2025)
One block for each compound: values may come before it.

Test system: 282377-053-R-J1-PDC complex spheroid viability
Test: Anticancer human tumor 282377-053-R-J1-PDC patient-derived colon adenocarcinoma cell line growth inhibition [RAS]
Conditions: for IC50: curve of first compound; for viability, T/C: stronger effect = lower value
Description: RAS pathway inhibitors in Combinations in Complex Spheroids
A high-throughput screen of multi-cell type tumor spheroids was designed to identify active combinations of RAS pathway inhibitors and targeted small molecules. Complex spheroids include a stromal component modeled by human endothelial cells (HUVEC) and fibroblasts modeled by human mesenchymal stem cells (MSCs). The concentration ranges selected for each drug and investigational agent were based upon clinically achievable concentrations if the clinical Cmax of the agent was known.
Compounds. The drugs and investigational agents: abemaciclib (NSC768073), cobimetinib (NSC768068), divarasib (GDC6063, NSC841802), docetaxel (NSC628503), GDC-1971 (RLY-1971, NSC841576), gemcitabine (NSC613327), inavolisib (NSC800729), ipatasertib (NSC767898), KB-0742 (NSC834161), MRTX-1133 (NSC836407), osimertinib (NSC779217), RMC-4630 (NSC839698), RMC-6236 (NSC851965), RMC-6291 (NSC852671), Ro-3306 (NSC812927), sapanisertib (NSC764658), SN-38 (NSC673596), staurosporine (NSC755774), SY5609 (NSC837396), and tovorafenib (DAY101, NSC766906), were obtained from the National Cancer Institute (NCI) Developmental Therapeutics Program Chemical Repository. The FDA-approved anticancer drug set is available from the NCI Developmental Therapeutics Program. […] The stock solutions were prepared in dimethyl sulfoxide (DMSO, Sigma-Aldrich, St. Louis, MO, cat. D2650) at 800-fold the tested concentration and stored at -70 degrees C prior to their use. All drugs and investigational agents were tested over a range starting from a high concentration at or near the clinical Cmax and decreasing in half-log increments. If the clinical Cmax for an agent had not been determined, the highest concentration tested was 10 microM.
Cell Culture. All cells were maintained in an incubator at 37 degrees C and 5% CO2 with 95% humidity. The PDC lines were cultured according to standard operating procedures established by the NCI PDMR. All PDCs were thawed and cultured in Matrigel-coated flasks prepared with a working solution of 1X Ham's F-12 nutrient mix, without supplementation (Invitrogen, Waltham, MA, cat. 11765054), 100 U/mL penicillin-streptomycin (Invitrogen, cat. 15140122), and 2.5% Matrigel (Corning Inc., Corning, NY, cat. 354248) for the first three passages. The 362531-283-R-J2-PDC and 782815-120-R-J1-PDC lines were cultured in 6C/Colon 1B media, which includes advanced DMEM/F-12 (Thermo Fisher Scientific, cat. 12634028), 10 mM HEPES (Thermo Fisher Scientific, cat. 15630080), 1X GlutaMAX supplement (Thermo Fisher Scientific, cat. 35050061), 0.1 mg/mL primocin (InvivoGen, San Diego, CA, cat. ant-pm-2), 10% defined fetal bovine serum, heat inactivated (HyClone Laboratories Inc., Logan, UT, cat. SH30070.03HI), 50% L-WRN conditioned media (ATCC, cat. CRL-3276), 1.25 mM N-Acetyl-L-cysteine (Sigma-Aldrich, cat. A9165), 10 mM nicotinamide (Sigma-Aldrich, cat. N0636), 1X B-27 supplement (Thermo Fisher Scientific, cat. 17504044), 1X N-2 supplement (Thermo Fisher Scientific, cat. 17502048), 50 ng/mL human EGF (Thermo Fisher Scientific, cat. PHG0311), and 10 microM Y-27632 dihydrochloride (Tocris Bioscience, cat. 1254). The K12877-001-R-J1-PDC line was cultured in 6I media, which includes all 6C/Colon 1B media plus 10 ng/mL human FGF-10 (PeproTech, cat. 100-26), 1 ng/mL human FGF-2 (PeproTech, cat. 100-18B), 1 µM prostaglandin E2 (Tocris Bioscience, cat. 2296), […] hydrocortisone (Sigma-Aldrich, cat. H4001), and […] bovine insulin (Sigma-Aldrich, cat. I6634). The K86415-001-R-J1-PDC line was cultured in 6D media, which includes all 6C/Colon 1B media components minus the L-WRN conditioned media. The 485176-168-R4-J1-PDC was cultured in PANC media, which includes all 6C/Colon 1B media plus 100 ng/mL human FGF-10 (PeproTech, cat. 100-26), 500 nM SB-431542 (Selleckchem, cat. S1067), and 10 nM gastrin (Tocris Bioscience, cat. 3006). […]

[1] = second compound 0.0316 µM, first compound 0.0316 µM
[2] = second compound 0.0316 µM, first compound 0.1 µM
[3] = second compound 0.0316 µM, first compound 0.316 µM
[4] = second compound 0.0316 µM, first compound 1 µM
[5] = second compound 0.0316 µM, first compound 3.16 µM
[6] = second compound 0.0316 µM, first compound 10 µM
[7] = second compound 0.1 µM, first compound 0.0316 µM
[8] = second compound 0.1 µM, first compound 0.1 µM
[9] = second compound 0.1 µM, first compound 0.316 µM
[10] = second compound 0.1 µM, first compound 1 µM
[11] = second compound 0.1 µM, first compound 3.16 µM
[12] = second compound 0.1 µM, first compound 10 µM
[13] = second compound 0.316 µM, first compound 0.0316 µM
[14] = second compound 0.316 µM, first compound 0.1 µM
[15] = second compound 0.316 µM, first compound 0.316 µM
[16] = second compound 0.316 µM, first compound 1 µM
[17] = second compound 0.316 µM, first compound 3.16 µM
[18] = second compound 0.316 µM, first compound 10 µM
[19] = second compound 1 µM, first compound 0.0316 µM
[20] = second compound 1 µM, first compound 0.1 µM
[21] = second compound 1 µM, first compound 0.316 µM
[22] = second compound 1 µM, first compound 1 µM
[23] = second compound 1 µM, first compound 3.16 µM
[24] = second compound 1 µM, first compound 10 µM
[25] = second compound 3.16 µM, first compound 0.0316 µM
[26] = second compound 3.16 µM, first compound 0.1 µM
[27] = second compound 3.16 µM, first compound 0.316 µM
[28] = second compound 3.16 µM, first compound 1 µM
[29] = second compound 3.16 µM, first compound 3.16 µM
[30] = second compound 3.16 µM, first compound 10 µM
[31] = second compound 10 µM, first compound 0.0316 µM
[32] = second compound 10 µM, first compound 0.1 µM
[33] = second compound 10 µM, first compound 0.316 µM
[34] = second compound 10 µM, first compound 1 µM
[35] = second compound 10 µM, first compound 3.16 µM
[36] = second compound 10 µM, first compound 10 µM
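Further: spheroids exposed to agents for seven days before readout.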
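Wherever viability, T/C is given: luminescence viability as percent of DMSO vehicle control wells.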

- IC50 (second compound 0.0316 µM): 6260 nM
- IC50 (second compound 0.1 µM): 6080 nM
- IC50 (second compound 0.316 µM): 6100 nM
- IC50 (second compound 1 µM): 6130 nM
- IC50 (second compound 3.16 µM): 6170 nM
- IC50 (second compound 10 µM): 6210 nM
SMILES: CC1(O)CCCC1n1c(=O)c(C(F)F)cc2cnc(NC3CCN(S(C)(=O)=O)CC3)nc21 (stereo unspecified) + C#Cc1c(F)ccc2cc(O)cc(-c3ncc4c(N5CC6CCC(C5)N6)nc(OCC56CCCN5CC(F)C6)nc4c3F)c12
- viability, T/C [1]: 102%
- viability, T/C [2]: 115%
- viability, T/C [3]: 135%
- viability, T/C [4]: 121%
- viability, T/C [5]: 121%
- viability, T/C [6]: 2.6%
- viability, T/C [7]: 109%
- viability, T/C [8]: 117%
- viability, T/C [9]: 128%
- viability, T/C [10]: 125%
- viability, T/C [11]: 111%
- viability, T/C [12]: 3.18%
- viability, T/C [13]: 117%
- viability, T/C [14]: 126%
- viability, T/C [15]: 120%
- viability, T/C [16]: 108%
- viability, T/C [17]: 112%
- viability, T/C [18]: 3.11%
- viability, T/C [19]: 98.9%
- viability, T/C [20]: 111%
- viability, T/C [21]: 123%
- viability, T/C [22]: 110%
- viability, T/C [23]: 122%
- viability, T/C [24]: 3.32%
- viability, T/C [25]: 94.4%
- viability, T/C [26]: 127%
- viability, T/C [27]: 130%
- viability, T/C [28]: 102%
- viability, T/C [29]: 113%
- viability, T/C [30]: 4.31%
- viability, T/C [31]: 99%
- viability, T/C [32]: 117%
- viability, T/C [33]: 116%
- viability, T/C [34]: 121%
- viability, T/C [35]: 132%
- viability, T/C [36]: 2.84%

- IC50 (second compound 0.0316 µM): 1970 nM
- IC50 (second compound 0.1 µM): 2020 nM
- IC50 (second compound 0.316 µM): 1860 nM
- IC50 (second compound 1 µM): 1700 nM
- IC50 (second compound 3.16 µM): 1910 nM
- IC50 (second compound 10 µM): 1760 nM
SMILES: CCC(CC)c1cc(NC2CCC(N)C2)n2nccc2n1 (stereo unspecified) + C#Cc1c(F)ccc2cc(O)cc(-c3ncc4c(N5CC6CCC(C5)N6)nc(OCC56CCCN5CC(F)C6)nc4c3F)c12
- viability, T/C [1]: 113%
- viability, T/C [2]: 120%
- viability, T/C [3]: 89.4%
- viability, T/C [4]: 111%
- viability, T/C [5]: 9.2%
- viability, T/C [6]: 2.06%
- viability, T/C [7]: 113%
- viability, T/C [8]: 123%
- viability, T/C [9]: 94.9%
- viability, T/C [10]: 118%
- viability, T/C [11]: 10.2%
- viability, T/C [12]: 2.09%
- viability, T/C [13]: 107%
- viability, T/C [14]: 102%
- viability, T/C [15]: 81.3%
- viability, T/C [16]: 96.9%
- viability, T/C [17]: 9.63%
- viability, T/C [18]: 2.11%
- viability, T/C [19]: 103%
- viability, T/C [20]: 95.4%
- viability, T/C [21]: 86.8%
- viability, T/C [22]: 84.6%
- viability, T/C [23]: 9.29%
- viability, T/C [24]: 2.23%
- viability, T/C [25]: 99.5%
- viability, T/C [26]: 112%
- viability, T/C [27]: 104%
- viability, T/C [28]: 100%
- viability, T/C [29]: 10.8%
- viability, T/C [30]: 2.69%
- viability, T/C [31]: 101%
- viability, T/C [32]: 95.9%
- viability, T/C [33]: 96.3%
- viability, T/C [34]: 89.4%
- viability, T/C [35]: 9.18%
- viability, T/C [36]: 3.74%

- IC50 (second compound 0.0316 µM): > 1000 nM
- IC50 (second compound 0.1 µM): > 1000 nM
- IC50 (second compound 0.316 µM): > 1000 nM
- IC50 (second compound 1 µM): > 1000 nM
- IC50 (second compound 3.16 µM): > 1000 nM
- IC50 (second compound 10 µM): > 1000 nM
SMILES: CCN1CCN(Cc2ccc(Nc3ncc(F)c(-c4cc(F)c5nc(C)n(C(C)C)c5c4)n3)nc2)CC1 + C#Cc1c(F)ccc2cc(O)cc(-c3ncc4c(N5CC6CCC(C5)N6)nc(OCC56CCCN5CC(F)C6)nc4c3F)c12
- viability, T/C (second compound 0.0316 µM, first compound 0.00316 µM): 101%
- viability, T/C (second compound 0.0316 µM, first compound 0.01 µM): 101%
- viability, T/C [1]: 112%
- viability, T/C [2]: 119%
- viability, T/C [3]: 127%
- viability, T/C [4]: 127%
- viability, T/C (second compound 0.1 µM, first compound 0.00316 µM): 125%
- viability, T/C (second compound 0.1 µM, first compound 0.01 µM): 95.5%
- viability, T/C [7]: 107%
- viability, T/C [8]: 106%
- viability, T/C [9]: 135%
- viability, T/C [10]: 126%
- viability, T/C (second compound 0.316 µM, first compound 0.00316 µM): 105%
- viability, T/C (second compound 0.316 µM, first compound 0.01 µM): 108%
- viability, T/C [13]: 109%
- viability, T/C [14]: 121%
- viability, T/C [15]: 117%
- viability, T/C [16]: 129%
- viability, T/C (second compound 1 µM, first compound 0.00316 µM): 97.3%
- viability, T/C (second compound 1 µM, first compound 0.01 µM): 100%
- viability, T/C [19]: 96.7%
- viability, T/C [20]: 103%
- viability, T/C [21]: 119%
- viability, T/C [22]: 132%
- viability, T/C (second compound 3.16 µM, first compound 0.00316 µM): 107%
- viability, T/C (second compound 3.16 µM, first compound 0.01 µM): 112%
- viability, T/C [25]: 103%
- viability, T/C [26]: 118%
- viability, T/C [27]: 134%
- viability, T/C [28]: 131%
- viability, T/C (second compound 10 µM, first compound 0.00316 µM): 90.2%
- viability, T/C (second compound 10 µM, first compound 0.01 µM): 90.1%
- viability, T/C [31]: 101%
- viability, T/C [32]: 111%
- viability, T/C [33]: 104%
- viability, T/C [34]: 120%
